This note sets out measurements from BindingDB's records for doi:10.1021/jm0704550 (Cnrs, 2007).

pEC50, pIC50: −log10 of the molar value. Bounds are passed on as bounds.

In one assay the target is Growth hormone secretagogue receptor type 1 (Homo sapiens, UniProt Q92847). The assay can be described thus: Receptor Binding Studies.
Sequence of Growth hormone secretagogue receptor type 1 (Q92847 whole entry): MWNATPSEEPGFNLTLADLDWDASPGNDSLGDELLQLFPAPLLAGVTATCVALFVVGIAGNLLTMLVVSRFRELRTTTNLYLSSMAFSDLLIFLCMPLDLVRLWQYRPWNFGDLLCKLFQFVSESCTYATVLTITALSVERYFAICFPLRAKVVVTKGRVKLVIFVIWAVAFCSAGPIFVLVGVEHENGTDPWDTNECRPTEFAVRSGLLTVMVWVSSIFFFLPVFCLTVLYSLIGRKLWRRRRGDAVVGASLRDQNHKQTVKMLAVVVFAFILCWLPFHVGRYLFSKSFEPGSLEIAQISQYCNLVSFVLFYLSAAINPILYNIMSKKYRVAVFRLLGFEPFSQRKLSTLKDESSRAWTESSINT
Details: not given
Take `COc1ccc(Cn2c(CCc3c[nH]c4ccccc34)nnc2[C@@H](Cc2c[nH]c3ccccc23)NC(=O)C2CNCCN2)cc1` (stereo partly drawn) [N-[(1R)-2-(1H-indol-3-yl)-1-{5-[2-(1H-indol-3-yl)ethyl]-4-[(4-methoxyphenyl)methyl]-4H-1,2,4-triazol-3-yl}ethyl]piperazine-2-carboxamide]: the negative logarithm of the EC50 (pEC50) – broadly, the EC50 on a negative log10 scale, so that one unit is a factor of ten – was 8.06. On to `CCc1ccc(Cn2c(CCc3ccccc3)nnc2[C@@H](Cc2c[nH]c3ccccc23)NC(=O)[C@H]2CCCCN2)cc1` [(2R)-N-[(1R)-1-{4-[(4-ethylphenyl)methyl]-5-(2-phenylethyl)-4H-1,2,4-triazol-3-yl}-2-(1H-indol-3-yl)ethyl]piperidine-2-carboxamide], for which the negative logarithm of the IC50 (pIC50) (commonly −log10 of the IC50, conventionally taken in molar units) is 6.43. `COc1ccc(Cn2c(CCc3c[nH]c4ccccc34)nnc2[C@@H](Cc2c[nH]c3ccccc23)NC(=O)[C@H]2CCCCN2)cc1` [(2R)-N-[(1R)-2-(1H-indol-3-yl)-1-{5-[2-(1H-indol-3-yl)ethyl]-4-[(4-methoxyphenyl)methyl]-4H-1,2,4-triazol-3-yl}ethyl]piperidine-2-carboxamide] showed a Kb of 0.008 µM.

Compound `COc1ccc(Cn2c(CCc3c[nH]c4ccccc34)nnc2[C@@H](Cc2c[nH]c3ccccc23)NC(=O)C2CCCCN2)c(OC)c1` (stereo partly drawn) [N-[(1R)-1-{4-[(2,4-dimethoxyphenyl)methyl]-5-[2-(1H-indol-3-yl)ethyl]-4H-1,2,4-triazol-3-yl}-2-(1H-indol-3-yl)ethyl]piperidine-2-carboxamide] returned a Kb of 0.018 µM. The compound `O=C(N[C@H](Cc1c[nH]c2ccccc12)c1nnc(CCc2ccccc2)n1Cc1ccco1)C1CCNCC1` [N-[(1R)-1-[4-(furan-2-ylmethyl)-5-(2-phenylethyl)-4H-1,2,4-triazol-3-yl]-2-(1H-indol-3-yl)ethyl]piperidine-4-carboxamide] showed a negative logarithm of the EC50 (pEC50) of 6.74 and a negative-log IC50 (pIC50) of 6.25. The like results for `CCc1ccc(Cn2c(CCc3ccccc3)nnc2[C@@H](Cc2c[nH]c3ccccc23)NC(=O)C2CNCCN2)cc1` (stereo partly drawn) [N-[(1R)-1-{4-[(4-ethylphenyl)methyl]-5-(2-phenylethyl)-4H-1,2,4-triazol-3-yl}-2-(1H-indol-3-yl)ethyl]piperazine-2-carboxamide] were, in that order, 6.84 and 6.75. `COc1ccc(Cn2c(CCc3ccccc3)nnc2[C@@H](Cc2c[nH]c3ccccc23)NC(=O)C2CCOCC2)cc1` [N-[(1R)-2-(1H-indol-3-yl)-1-{4-[(4-methoxyphenyl)methyl]-5-(2-phenylethyl)-4H-1,2,4-triazol-3-yl}ethyl]oxane-4-carboxamide] showed a negative logarithm of the IC50 (pIC50) of 8.22 and a Kb of 0.051 µM. In turn, `COc1ccc(Cn2c(CCc3ccccc3)nnc2[C@@H](Cc2c[nH]c3ccccc23)NC(=O)C2CCNCC2)cc1` [N-[(1R)-2-(1H-indol-3-yl)-1-{4-[(4-methoxyphenyl)methyl]-5-(2-phenylethyl)-4H-1,2,4-triazol-3-yl}ethyl]piperidine-4-carboxamide] gave a negative-log EC50 (pEC50) of 8.80. On the same count and under the same terms, the result for `COc1ccc(Cn2c(CCc3ccccc3)nnc2[C@@H](Cc2c[nH]c3ccccc23)NC(=O)C2CCNCC2)c(OC)c1` [N-[(1R)-1-{4-[(2,4-dimethoxyphenyl)methyl]-5-(2-phenylethyl)-4H-1,2,4-triazol-3-yl}-2-(1H-indol-3-yl)ethyl]piperidine-4-carboxamide] reads 8.21.

With `COc1ccc(Cn2c(CCc3ccccc3)nnc2[C@@H](Cc2c[nH]c3ccccc23)NC(=O)[C@H]2CCCCN2)c(OC)c1` [(2R)-N-[(1R)-1-{4-[(2,4-dimethoxyphenyl)methyl]-5-(2-phenylethyl)-4H-1,2,4-triazol-3-yl}-2-(1H-indol-3-yl)ethyl]piperidine-2-carboxamide], the negative logarithm of the IC50 (pIC50) was 6.87.

Still in this assay, the particulars now being: pH 7.3; 25 °C.
With `COc1ccc(Cn2c(CCc3ccccc3)nnc2[C@@H](Cc2c[nH]c3ccccc23)NC(=O)[C@H]2CCCNC2)cc1` [(3S)-N-[(1R)-2-(1H-indol-3-yl)-1-{4-[(4-methoxyphenyl)methyl]-5-(2-phenylethyl)-4H-1,2,4-triazol-3-yl}ethyl]piperidine-3-carboxamide], the Kb stood at 0.01 µM. Consider `COc1ccc(Cn2c(CCc3ccccc3)nnc2[C@@H](Cc2c[nH]c3ccccc23)NC(=O)[C@@H]2CCCN2)c(OC)c1` [(2S)-N-[(1R)-1-{4-[(2,4-dimethoxyphenyl)methyl]-5-(2-phenylethyl)-4H-1,2,4-triazol-3-yl}-2-(1H-indol-3-yl)ethyl]pyrrolidine-2-carboxamide], for which the Kb is 0.032 µM. In turn, `COc1ccc(Cn2c(CCc3ccccc3)nnc2[C@@H](Cc2c[nH]c3ccccc23)NC(=O)[C@H]2CCCN2)cc1` [(2R)-N-[(1R)-2-(1H-indol-3-yl)-1-{4-[(4-methoxyphenyl)methyl]-5-(2-phenylethyl)-4H-1,2,4-triazol-3-yl}ethyl]pyrrolidine-2-carboxamide] had a negative logarithm of the IC50 (pIC50) of 7.49 and a Kb of 0.008 µM. In turn, `COc1ccc(Cn2c(CCc3c[nH]c4ccccc34)nnc2[C@@H](Cc2c[nH]c3ccccc23)NC(=O)[C@@H]2CCCN2)c(OC)c1` yielded a Kb of 0.011 µM. For `CCc1ccc(Cn2c(CCc3ccccc3)nnc2[C@@H](Cc2c[nH]c3ccccc23)NC(=O)[C@H](C)N)cc1` [(2S)-2-amino-N-[(1R)-1-{4-[(4-ethylphenyl)methyl]-5-(2-phenylethyl)-4H-1,2,4-triazol-3-yl}-2-(1H-indol-3-yl)ethyl]propanamide], the pIC50 is 6.56. On the same count and under the same terms, the result for `O=C(N[C@H](Cc1c[nH]c2ccccc12)c1nnc(CCc2ccccc2)n1Cc1ccccn1)C1CCCNC1` (stereo partly drawn) [N-[(1R)-2-(1H-indol-3-yl)-1-[5-(2-phenylethyl)-4-(pyridin-2-ylmethyl)-4H-1,2,4-triazol-3-yl]ethyl]piperidine-3-carboxamide] reads less than 6.00. On to `COc1ccc(Cn2c(CCc3ccccc3)nnc2[C@@H](Cc2c[nH]c3ccccc23)NC(=O)[C@H](C)N)cc1` [(S)-N-((R)-1-(4-(4-Methoxybenzyl)-5-phenethyl-4H-1,2,4-triazol-3-yl)-2-(1H-indol-3-yl)ethyl)-2-aminopropanamide], for which the pIC50 is 6.95. In the case of `COc1ccc(Cn2c(CCc3c[nH]c4ccccc34)nnc2[C@@H](Cc2c[nH]c3ccccc23)NC(=O)[C@H]2CCCN2)cc1` [(2R)-N-[(1R)-2-(1H-indol-3-yl)-1-{5-[2-(1H-indol-3-yl)ethyl]-4-[(4-methoxyphenyl)methyl]-4H-1,2,4-triazol-3-yl}ethyl]pyrrolidine-2-carboxamide], the Kb amounted to 0.007 µM. The compound `O=C(N[C@H](Cc1c[nH]c2ccccc12)c1nnc(CCc2ccccc2)n1-c1ccccc1)[C@@H]1CCCN1` [(2S)-N-[(1R)-2-(1H-indol-3-yl)-1-[4-phenyl-5-(2-phenylethyl)-4H-1,2,4-triazol-3-yl]ethyl]pyrrolidine-2-carboxamide] gave a negative-log IC50 (pIC50) of less than 6.00. In turn, `COc1ccc(Cn2c(CCc3c[nH]c4ccccc34)nnc2[C@@H](Cc2c[nH]c3ccccc23)NC(=O)CN)c(OC)c1` [2-amino-N-[(1R)-1-{4-[(2,4-dimethoxyphenyl)methyl]-5-[2-(1H-indol-3-yl)ethyl]-4H-1,2,4-triazol-3-yl}-2-(1H-indol-3-yl)ethyl]acetamide] yielded a Kb of 0.027 µM. Regarding `COc1ccc(Cn2c(CCc3c[nH]c4ccccc34)nnc2[C@@H](Cc2c[nH]c3ccccc23)NC(=O)C(C)(C)N)cc1`, the Kb was found to be 0.004 µM.
